Biological target: Prostaglandin G/H synthase 1 (Homo sapiens, UniProt P23219)
Sequence (P23219 whole entry): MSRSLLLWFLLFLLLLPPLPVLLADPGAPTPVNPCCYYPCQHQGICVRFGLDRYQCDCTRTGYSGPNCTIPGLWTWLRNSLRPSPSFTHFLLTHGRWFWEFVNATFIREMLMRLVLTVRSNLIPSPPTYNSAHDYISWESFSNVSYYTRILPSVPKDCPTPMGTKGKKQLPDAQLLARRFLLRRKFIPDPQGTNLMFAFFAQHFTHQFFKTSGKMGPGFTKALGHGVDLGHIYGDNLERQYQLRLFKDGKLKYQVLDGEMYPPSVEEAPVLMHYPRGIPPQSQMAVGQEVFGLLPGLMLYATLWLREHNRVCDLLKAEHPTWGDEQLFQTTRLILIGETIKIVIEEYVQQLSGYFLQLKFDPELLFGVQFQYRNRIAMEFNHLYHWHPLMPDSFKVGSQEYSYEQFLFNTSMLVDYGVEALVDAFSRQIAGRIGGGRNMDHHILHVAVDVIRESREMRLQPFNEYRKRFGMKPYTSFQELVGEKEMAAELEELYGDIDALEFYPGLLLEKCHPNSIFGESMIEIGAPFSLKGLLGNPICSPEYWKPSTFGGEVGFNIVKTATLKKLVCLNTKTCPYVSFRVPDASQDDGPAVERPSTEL

SMILES: Cc1ccc(-c2ncc(Cl)cc2-c2ccc(S(C)(=O)=O)cc2)cn1
- Ki: > 10 µM
